Experimental data reported in US20220281848A1, “PYRAZOLE-SUBSTITUTED PYRROLIDINONES AS HERBICIDES” (FMC Corporation, priority 2019, published 2022).

Test system: plants
Assay: Test D pre-emergence, other plants of Tables D1 and D3
Assay type: in vivo
Details: for damage to plant (100=total damage to plant; 0=no damage to plant), SORVU: preemergent, 20 DAA; for damage to plant, ALOMY / damage to plant, AVEFA / damage to plant, BEAVA / damage to plant, BROTE / damage to plant, BRSNN / damage to plant, CHEAL / damage to plant, GALAP / damage to plant, HORVW / damage to plant, KCHSC / damage to plant, LOLPE / damage to plant, POAAN / damage to plant, POLCO / damage to plant, SINAR / damage to plant, STEME / damage to plant, VERPE: pre-emergence, 100=total damage, 0=no damage
How it was run: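 Seeds treated with herbicide safener; sown in soil; glasshouse, 16 h light, 65% humidity. Sprayed day 1 (pre) or ~day 12 (post). Spray in 0.2% v/v adjuvant. Scored 0–100 damage: 20 DAA pre, 15 d post.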

CCn1nc([C@H]2CN(C)C(=O)[C@@H]2C(=O)Nc2cccc(F)c2F)c2cc(F)ccc21 [Compound 8]
damage to plant (100=total damage to plant; 0=no damage to plant), SORVU (rate 250): 20 | damage to plant (100=total damage to plant; 0=no damage to plant), SORVU (rate 500): 30 | damage to plant, ALOMY (rate 15, 20 DAA): 0 | damage to plant, AVEFA (rate 15, 20 DAA): 0 | damage to plant, BEAVA (rate 15, 20 DAA): 0 | damage to plant, BROTE (rate 15, 20 DAA): 0 | damage to plant, BRSNN (rate 15, 20 DAA): 0 | damage to plant, CHEAL (rate 15, 20 DAA): 0 | damage to plant, GALAP (rate 15, 20 DAA): 0 | damage to plant, HORVW (rate 15, 20 DAA): 0 | damage to plant, KCHSC (rate 15, 20 DAA): 0 | damage to plant, LOLPE (rate 15, 20 DAA): 0 | damage to plant, POAAN (rate 15, 20 DAA): 0 | damage to plant, POLCO (rate 15, 20 DAA): 0 | damage to plant, SINAR (rate 15, 20 DAA): 0 | damage to plant, STEME (rate 15, 20 DAA): 0 | damage to plant, VERPE (rate 15, 20 DAA): 0 | damage to plant, ALOMY (rate 30, 20 DAA): 0 | damage to plant, AVEFA (rate 30, 20 DAA): 0 | damage to plant, BEAVA (rate 30, 20 DAA): 0 | damage to plant, BROTE (rate 30, 20 DAA): 0 | damage to plant, BRSNN (rate 30, 20 DAA): 0 | damage to plant, CHEAL (rate 30, 20 DAA): 0 | damage to plant, GALAP (rate 30, 20 DAA): 0 | damage to plant, HORVW (rate 30, 20 DAA): 0 | damage to plant, KCHSC (rate 30, 20 DAA): 0 | damage to plant, LOLPE (rate 30, 20 DAA): 0 | damage to plant, POAAN (rate 30, 20 DAA): 0 | damage to plant, POLCO (rate 30, 20 DAA): 0 | damage to plant, SINAR (rate 30, 20 DAA): 0 | damage to plant, STEME (rate 30, 20 DAA): 0 | damage to plant, VERPE (rate 30, 20 DAA): 0 | damage to plant, ALOMY (rate 60, 20 DAA): 0 | damage to plant, AVEFA (rate 60, 20 DAA): 0 | damage to plant, BEAVA (rate 60, 20 DAA): 0 | damage to plant, BROTE (rate 60, 20 DAA): 0 | damage to plant, BRSNN (rate 60, 20 DAA): 0 | damage to plant, CHEAL (rate 60, 20 DAA): 0 | damage to plant, GALAP (rate 60, 20 DAA): 0 | damage to plant, HORVW (rate 60, 20 DAA): 0 | damage to plant, KCHSC (rate 60, 20 DAA): 0 | damage to plant, LOLPE (rate 60, 20 DAA): 0 | damage to plant, POAAN (rate 60, 20 DAA): 0 | damage to plant, POLCO (rate 60, 20 DAA): 0 | damage to plant, SINAR (rate 60, 20 DAA): 0 | damage to plant, STEME (rate 60, 20 DAA): 0 | damage to plant, VERPE (rate 60, 20 DAA): 0 | damage to plant, ALOMY (rate 130, 20 DAA): 0 | damage to plant, AVEFA (rate 130, 20 DAA): 0 | damage to plant, BEAVA (rate 130, 20 DAA): 0 | damage to plant, BROTE (rate 130, 20 DAA): 0 | damage to plant, BRSNN (rate 130, 20 DAA): 0 | damage to plant, CHEAL (rate 130, 20 DAA): 0 | damage to plant, GALAP (rate 130, 20 DAA): 0 | damage to plant, HORVW (rate 130, 20 DAA): 0 | damage to plant, KCHSC (rate 130, 20 DAA): 0 | damage to plant, LOLPE (rate 130, 20 DAA): 0 | damage to plant, POAAN (rate 130, 20 DAA): 0 | damage to plant, POLCO (rate 130, 20 DAA): 0 | damage to plant, SINAR (rate 130, 20 DAA): 0 | damage to plant, STEME (rate 130, 20 DAA): 0 | damage to plant, VERPE (rate 130, 20 DAA): 0 | damage to plant, ALOMY (rate 250, 20 DAA): 0 | damage to plant, AVEFA (rate 250, 20 DAA): 0 | damage to plant, BEAVA (rate 250, 20 DAA): 0 | damage to plant, BROTE (rate 250, 20 DAA): 0 | damage to plant, BRSNN (rate 250, 20 DAA): 0 | damage to plant, CHEAL (rate 250, 20 DAA): 0 | damage to plant, GALAP (rate 250, 20 DAA): 0 | damage to plant, HORVW (rate 250, 20 DAA): 0 | damage to plant, KCHSC (rate 250, 20 DAA): 0 | damage to plant, LOLPE (rate 250, 20 DAA): 0 | damage to plant, POAAN (rate 250, 20 DAA): 0 | damage to plant, POLCO (rate 250, 20 DAA): 0 | damage to plant, SINAR (rate 250, 20 DAA): 0 | damage to plant, STEME (rate 250, 20 DAA): 0 | damage to plant, VERPE (rate 250, 20 DAA): 0 | damage to plant, ALOMY (rate 500, 20 DAA): 10 | damage to plant, AVEFA (rate 500, 20 DAA): 10 | damage to plant, BEAVA (rate 500, 20 DAA): 0 | damage to plant, BROTE (rate 500, 20 DAA): 0 | damage to plant, BRSNN (rate 500, 20 DAA): 10 | damage to plant, CHEAL (rate 500, 20 DAA): 0 | damage to plant, GALAP (rate 500, 20 DAA): 0 | damage to plant, HORVW (rate 500, 20 DAA): 10 | damage to plant, KCHSC (rate 500, 20 DAA): 0 | damage to plant, LOLPE (rate 500, 20 DAA): 0 | damage to plant, POAAN (rate 500, 20 DAA): 60 | damage to plant, POLCO (rate 500, 20 DAA): 0 | damage to plant, SINAR (rate 500, 20 DAA): 0 | damage to plant, STEME (rate 500, 20 DAA): 0 | damage to plant, VERPE (rate 500, 20 DAA): 0
